Data set [1] is described as follows: Oral bioavailability in rhesus monkey. It counts as ADME, organism-based, Macaca mulatta. Conditions: in vivo.
A short description of data set [2]: Oral bioavailability in rat. The class given is ADME, organism-based. Conditions: in vivo.
Data set [3] in a line: Distribution coefficient, logD of compound. It counts as physicochemical. To be noted: octanol/water.
Data set [4] in a line: Solubility of the compound at pH 7. It counts as physicochemical. Conditions: buffer.
The nature of data set [5]: Solubility of the compound at pH 2. The class given is physicochemical. Conditions: buffer.

Regarding `NC(=O)c1cc(-c2ccc(F)cc2)c2ccc(CN3C(=O)CCC3=O)cc2n1`, the bioavailability in data set [1] and in data set [2] was more than 99% throughout. Further, the logD (as a rule, the decadic logarithm of the distribution of all forms, ionised or not, between an organic phase and buffer at a given pH) in data set [3] is 2.1.

Consider `CC[C@@](O)(c1cn(Cc2ccc3c(-c4ccc(F)cc4)cc(C(N)=O)nc3c2)nn1)C(F)(F)F`, for which the solubility in data set [4] and in data set [5] was less than 0.8 µM throughout.

Values taken from ChEMBL document CHEMBL4619715 (Bioorg Med Chem Lett, 2020).
